Results taken from the supplement of paper PMC11451515.

Tested on: SEM cells
Test: cell viability relative to DMSO control; higher = less cytotoxic
Settings: 48 h
Method in brief: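 Before seeding, each leukemia line was adapted for at least four passages in each medium. NOMO1 or SEM cells (500 cells/well) and P12-Ichikawa cells (1000 cells/well) went into 1536-well plates at 5 μl, then received library compounds in DMSO by pin dosing across 11 threefold concentrations, 47 μM to 0.79 nM. Readout was CellTiter-Glo One luminescence after 48 h at 37°C, and viability is given as a per-plate percentage of DMSO wells, with cell-free wells as background.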

[1] = HPLM + 10% dialyzed FBS, 0.000781 µM
[2] = HPLM + 10% dialyzed FBS, 0.00234 µM
[3] = HPLM + 10% dialyzed FBS, 0.00702 µM
[4] = HPLM + 10% dialyzed FBS, 0.0211 µM
[5] = HPLM + 10% dialyzed FBS, 0.0632 µM
[6] = HPLM + 10% dialyzed FBS, 0.19 µM
[7] = HPLM + 10% dialyzed FBS, 0.569 µM
[8] = HPLM + 10% dialyzed FBS, 1.71 µM
[9] = HPLM + 10% dialyzed FBS, 5.12 µM
[10] = HPLM + 10% dialyzed FBS, 15.4 µM
[11] = HPLM + 10% dialyzed FBS, 46.1 µM
[12] = RPMI 5 mM glucose + 10% FBS, 0.000781 µM
[13] = RPMI 5 mM glucose + 10% FBS, 0.00234 µM
[14] = RPMI 5 mM glucose + 10% FBS, 0.00702 µM
[15] = RPMI 5 mM glucose + 10% FBS, 0.0211 µM
[16] = RPMI 5 mM glucose + 10% FBS, 0.0632 µM
[17] = RPMI 5 mM glucose + 10% FBS, 0.19 µM
[18] = RPMI 5 mM glucose + 10% FBS, 0.569 µM
[19] = RPMI 5 mM glucose + 10% FBS, 1.71 µM
[20] = RPMI 5 mM glucose + 10% FBS, 5.12 µM
[21] = RPMI 5 mM glucose + 10% FBS, 15.4 µM
[22] = RPMI 5 mM glucose + 10% FBS, 46.1 µM
[23] = RPMI 5 mM glucose + 10% dialyzed FBS, 0.000781 µM
[24] = RPMI 5 mM glucose + 10% dialyzed FBS, 0.00234 µM
[25] = RPMI 5 mM glucose + 10% dialyzed FBS, 0.00702 µM
[26] = RPMI 5 mM glucose + 10% dialyzed FBS, 0.0211 µM
[27] = RPMI 5 mM glucose + 10% dialyzed FBS, 0.0632 µM
[28] = RPMI 5 mM glucose + 10% dialyzed FBS, 0.19 µM
[29] = RPMI 5 mM glucose + 10% dialyzed FBS, 0.569 µM
[30] = RPMI 5 mM glucose + 10% dialyzed FBS, 1.71 µM
[31] = RPMI 5 mM glucose + 10% dialyzed FBS, 5.12 µM
[32] = RPMI 5 mM glucose + 10% dialyzed FBS, 15.4 µM
[33] = RPMI 5 mM glucose + 10% dialyzed FBS, 46.1 µM

| SMILES | cell viability [1] [%] | cell viability [2] [%] | cell viability [3] [%] | cell viability [4] [%] | cell viability [5] [%] | cell viability [6] [%] | cell viability [7] [%] | cell viability [8] [%] | cell viability [9] [%] | cell viability [10] [%] | cell viability [11] [%] | cell viability [12] [%] | cell viability [13] [%] | cell viability [14] [%] | cell viability [15] [%] | cell viability [16] [%] | cell viability [17] [%] | cell viability [18] [%] | cell viability [19] [%] | cell viability [20] [%] | cell viability [21] [%] | cell viability [22] [%] | cell viability [23] [%] | cell viability [24] [%] | cell viability [25] [%] | cell viability [26] [%] | cell viability [27] [%] | cell viability [28] [%] | cell viability [29] [%] | cell viability [30] [%] | cell viability [31] [%] | cell viability [32] [%] | cell viability [33] [%] |
| --- | --- | --- | --- | --- | --- | --- | --- | --- | --- | --- | --- | --- | --- | --- | --- | --- | --- | --- | --- | --- | --- | --- | --- | --- | --- | --- | --- | --- | --- | --- | --- | --- | --- |
| C[C@@H](Cc1cc2c(c(C(N)=O)c1)N(CCCO)CC2)NCCOc1ccccc1OCC(F)(F)F | 86.8 | 85.3 | 76.7 | 82.9 | 99 | 96.7 | 95.5 | 97.3 | 101 | 98.1 | 88.7 | 95.1 | 111 | 114 | 112 | 119 | 107 | 121 | 101 | 102 | 110 | 99.2 | 93.4 | 98.3 | 101 | 110 | 123 | 118 | 111 | 142 | 110 | 110 | 82.9 |
| C[S+](=O)([O-])N1CCN(Cc2cc3nc(-c4cccc5[nH]ncc45)nc(N4CCOCC4)c3s2)CC1 | 97.5 | 121 | 116 | 111 | 103 | 92.4 | 82 | 74.9 | 56.9 | 31.7 | 12.9 | 106 | 121 | 129 | 105 | 112 | 108 | 89 | 67.4 | 46.6 | 23.2 | 8.22 | 115 | 122 | 129 | 127 | 110 | 106 | 78.6 | 78 | 57 | 42.6 | 16 |
| CC[C@H](C)C(=O)O[C@H]1C[C@@H](C)\C=C2\C=C/[C@H](C)[C@H](CC[C@@H]3C[C@@H](O)CC(=O)O3)[C@@H]12 | 71.1 | 85.1 | 100 | 87.9 | 90.3 | 93.8 | 56.6 | 86 | 82.6 | 59.8 | 65.7 | 51.9 | 91.1 | 92.5 | 89.8 | 93.2 | 95 | 84.8 | 81.9 | 81.2 | 63.2 | 64.5 | 80.9 | 84.6 | 106 | 92.6 | 97 | 108 | 30 | 99.8 | 98 | 71.6 | 61.1 |
| NC(=O)N1CCC(CC(=O)N2CCC([C@H]3c4ncc(Br)cc4CCc4cc(Cl)cc(Br)c43)CC2)CC1 | 106 | 99.3 | 114 | 124 | 111 | 118 | 72.5 | 57.1 | 48.6 | 45.7 | 34.8 | 114 | 122 | 120 | 129 | 111 | 122 | 82.4 | 66.3 | 46 | 44.4 | 24.1 | 98.1 | 109 | 110 | 101 | 97.2 | 114 | 95.9 | 84.4 | 56.1 | 58 | 17.8 |
| COc1cc2cc(c1Cl)N(C)C(=O)C[C@H](OC(=O)C(C)C)[C@]1(C)O[C@@H]1[C@H](C)[C@@H]1C[C@@](O)(NC(=O)O1)[C@H](OC)/C=C/C=C(\C)C2 | 27.9 | 26 | 28.5 | 22.6 | 15.2 | 9.09 | 7.19 | 6.56 | 5.59 | 4.17 | 2.54 | 21.3 | 24.2 | 21.4 | 12.7 | 9.24 | 8.39 | 7.82 | 6.35 | 4.76 | 4.03 | 2.1 | 24.3 | 24 | 20.2 | 14.5 | 8.42 | 5.55 | 5.76 | 5.03 | 4.42 | 3.49 | 1.84 |
| CC1(C)[C@@H](O)CC[C@@]2(C)[C@H]1CC[C@]3(C)[C@@H]2C(=O)\C=C/4[C@@H]5C[C@](C)(CC[C@]5(C)CC[C@@]34C)C(O)=O | 99.3 | 98.8 | 99.7 | 104 | 105 | 93.9 | 99 | 110 | 99.3 | 90.7 | 86.9 | 98.4 | 113 | 108 | 108 | 101 | 113 | 97.3 | 108 | 99.6 | 101 | 86.1 | 100 | 92.7 | 112 | 109 | 98.6 | 108 | 114 | 103 | 90.2 | 107 | 102 |
| CCC(=O)N1CCN(CC1)C2=C(C=C(C=C2)N3C(=O)\C=C/C4=C3C5=CC(=CC=C5N=C4)C6=CN=C7C=CC=CC7=C6)C(F)(F)F | 77.6 | 88.7 | 85.9 | 73.8 | 57.8 | 67.8 | 46.9 | 48.7 | 47.5 | 34.4 | 29 | 97 | 102 | 90.1 | 80.6 | 56.7 | 59.7 | 48 | 45 | 45 | 47.9 | 30.9 | 83.4 | 92.6 | 91.5 | 84.1 | 61.2 | 62.7 | 46 | 54.7 | 42.5 | 42.8 | 33.1 |
